This is an account of results in ChEMBL document CHEMBL1156829 (Proc Natl Acad Sci U S A, 2008).

The subject of series [1] is Plasmodium falciparum. Description: NOVARTIS: Inhibition of Plasmodium falciparum 3D7 (drug-susceptible) proliferation in erythrocyte-based infection assay. The series is classed as functional, organism-based. To be noted: Plasmodium falciparum, 3D7.
In series [2] the test system is Plasmodium falciparum. Description: NOVARTIS: Inhibition of Plasmodium falciparum W2 (drug-resistant) proliferation in erythrocyte-based infection assay. The settings on record: Plasmodium falciparum, W2; read-out: EC50. In kind it is functional, organism-based.
Series [3] is described as follows: NOVARTIS: Cytotoxicity against human hepatocellular carcinoma cell line (Huh7). In kind it is toxicity, cell-based, Huh-7. To be noted: Huh7 cells (hepatocellular carcinoma cell line).

As a reminder, the EC50 is the concentration that produces a half-maximal response. The CC50 is the concentration that lowers cell viability or growth by half. Turning to `C=C[C@H]1CN2CC[C@H]1C[C@@H]2[C@@H](OC(C)=O)c1ccnc2ccccc12`, the EC50 in the series with Plasmodium falciparum [1] was determined as 666 nM; in the series with Plasmodium falciparum [2], 157 nM. Besides, in series [3], the CC50 is more than 10000 nM.
For `COc1ccc2nc(NC(=N)N)nc(C)c2c1`, in that order: 712 nM, 867 nM and 57500 nM.
On to `O=C(Nc1ccc(C(F)(F)F)cc1)c1ccc(NCCCN2CCCCCC2)c([N+](=O)[O-])c1`, for which the figures for the EC50 in the series on Plasmodium falciparum [1] and in the series with Plasmodium falciparum [2] were 120 nM and 328 nM, respectively. This compound also had a CC50 in series [3] of 21200 nM.
With `CC(Oc1ccc(Cl)cc1Cl)c1nc(-c2ccc(NC(=O)c3ccco3)cc2)no1` (centres undefined), the EC50 amounted to 313 nM in the series on Plasmodium falciparum [1] and 551 nM with Plasmodium falciparum [2]. The CC50 in series [3] was determined as 35600 nM.
As to `O=C1c2cccc(N3CCCC(C(=O)N4CCCCC4c4cccnc4)C3)c2C(=O)N1Cc1ccc(C(F)(F)F)cc1` (centres undefined), the EC50 amounted to 3410 nM in the series with Plasmodium falciparum [1] and 1530 nM with Plasmodium falciparum [2]. The compound further gave a CC50 in series [3] of more than 100000 nM.
For `Cc1ccc(C2CC3=Nc4ccccc4N(C(=O)C(F)(F)F)C(c4ccc(OCc5ccccc5)cc4)C3=C(O)C2)cc1` (centres undefined), in that order: 1660 nM, 1560 nM and more than 100000 nM.
The corresponding values for `CCCCOc1ccc(C(O)C(CN2CCCCC2)c2ccccc2)cc1` (centres undefined) are 835 nM, 591 nM and 39300 nM.
For the compound `CC(C)OC(=O)c1cccnc1SCC(=O)Nc1ccc(C(F)(F)F)cc1Cl`, the EC50 in the series on Plasmodium falciparum [1] worked out at 5540 nM; with Plasmodium falciparum [2], 1500 nM. The compound also gave a CC50 in series [3] of more than 100000 nM.
The corresponding values for `Cc1c(NC(=O)C2c3ccccc3C(=O)N3CCc4ccccc4C23)cccc1[N+](=O)[O-]` (centres undefined) are 4070 nM, 1520 nM and more than 100000 nM.
With `CCN(CC)CCNc1nc(/C=C/c2ccc(Cl)cc2)nc2cc3ccccc3cc12`, the EC50 in the series with Plasmodium falciparum [1] turned out to be 124 nM; in the series on Plasmodium falciparum [2] it was 90.1 nM. The compound also returned a CC50 in series [3] of 5930 nM.
Turning to `O=C(NCc1ccccc1C(F)(F)F)C1CC(O)CN1C(=O)Nc1ccccc1` (centres undefined), the EC50 in the series on Plasmodium falciparum [1] is more than 1250 nM; in the series on Plasmodium falciparum [2] it was 152 nM. Also, the CC50 in series [3] was more than 10000 nM.
For `CN(CCCNc1ccnc2cc(Cl)ccc12)C(=O)CCc1ccccc1`, the results for the EC50 in the series with Plasmodium falciparum [1] and in the series with Plasmodium falciparum [2] were 136 nM and 187 nM, respectively. The CC50 in series [3] was more than 12100 nM.
For `Cc1nc2cc(-c3ccc(I)cc3)nn2c(O)c1C`, in that order: 4200 nM, 1540 nM and more than 100000 nM.
For `CCCCC(=O)N(C)CCCNc1ccnc2cc(Cl)ccc12`, in that order: 124 nM, 154 nM and more than 10000 nM.
Consider `CC1(C)C(=O)C2(CCCCC2)C(=O)OC1C=Cc1ccccc1` (centres undefined), for which the results for the EC50 with Plasmodium falciparum [1] and in the series with Plasmodium falciparum [2] were more than 12500 nM and 1540 nM, respectively. The same compound returned a CC50 in series [3] of more than 100000 nM.
`O=C1CC(N2CCCCCC2)C(=O)N1c1ccc(N2C(=O)CC(N3CCCCCC3)C2=O)cc1` (centres undefined): the values for the EC50 in the series on Plasmodium falciparum [1] and with Plasmodium falciparum [2] were more than 1250 nM and more than 155 nM, respectively. Further, the CC50 in series [3] was more than 10000 nM.
For `C(=Nc1cnc2ccccc2c1)c1c2n(c3ccccc13)CCCN2`, in that order: 663 nM, 1510 nM and more than 100000 nM.
For `C=CCCC(=O)N1CCC(C(=O)Nc2ccc(-c3nc4ccccc4o3)cc2)CC1`, in that order: 5420 nM, 1520 nM and more than 100000 nM.
The corresponding values for `CC(NC(=O)c1cnn2c(C(F)(F)F)cc(-c3ccc(Br)cc3)nc12)c1ccccc1` (centres undefined) are more than 10800 nM, 1520 nM and more than 100000 nM.
Take `O=C(Nc1ccc(Oc2cccnc2)cc1)C1CCN(Cc2cc3ccccc3o2)CC1`: the EC50 stood at 367 nM in the series with Plasmodium falciparum [1] and 1510 nM in the series on Plasmodium falciparum [2]. In series [3], the CC50 was more than 100000 nM.
For `CCN1CCN(c2cc(C)c(C#N)c3nc4ccccc4n23)CC1`, in that order: 798 nM, 1510 nM and more than 100000 nM.
The corresponding values for `CCOC(=O)C1=C(c2ccccc2)N=c2sc(=Cc3cccnc3)c(=O)n2C1c1c(OC)ccc2ccccc12` (centres undefined) are 4150 nM, 1550 nM and more than 100000 nM.
Regarding `COc1ccc(C2C(C(=O)OC3CCCC3)=C(C)NC3=C2C(=O)CC(C)(C)C3)cc1Br` (centres undefined), the EC50 with Plasmodium falciparum [1] is 7000 nM; in the series on Plasmodium falciparum [2], 1550 nM. The same compound came in with a CC50 in series [3] of more than 100000 nM.
For `COc1cccc(CNC(=O)C2CNCC2c2ccc(C(F)(F)F)cc2)c1` (centres undefined), in that order: 395 nM, 111 nM and more than 7220 nM.
For `COc1ccc2c(C)nc(NC(=N)N)nc2c1`, in that order: 417 nM, 1020 nM and 66400 nM.
Turning to `CC(C)CCNC(=O)CN1C(=O)c2cccnc2Oc2ccccc21`, the EC50 worked out at 4050 nM in the series with Plasmodium falciparum [1] and 1500 nM in the series with Plasmodium falciparum [2]. The compound further came in with a CC50 in series [3] of more than 100000 nM.
The corresponding values for `O=C(Nc1ccccc1C(F)(F)F)N1CCC(N2CCCCC2)CC1` are more than 9510 nM, 1500 nM and more than 100000 nM.
For `C/C(=C\c1csc(C)n1)[C@@H]1C[C@@H]2O[C@@H]2CCC[C@H](C)C(O)[C@@H](C)C(=O)C(C)(C)[C@@H](O)CC(=O)O1` (some centres undefined), in that order: 1030 nM, 156 nM and more than 10000 nM.
The corresponding values for `Cc1cc2c(cc1C)NC(c1ccc(Cl)c(F)c1)C1=C(CC(C)(C)CC1=O)N2` (centres undefined) are 1070 nM, 1000 nM and 64500 nM.
`N=c1c2c(n(CCc3ccccc3)c3c1CCC3)CCCC2`: the concentration for a half-maximal effect (EC50) with Plasmodium falciparum [1] amounted to 58.7 nM; with Plasmodium falciparum [2] it was 234 nM. For the same compound, it took 15300 nM to reach half-maximal cytotoxicity in series [3] (CC50).
As for `Cc1ccc(NC(=O)c2cc(C(=O)c3cc(Cl)ccc3O)cn(-c3ccc(C)cc3C)c2=O)c(C)c1`, the EC50 in the series with Plasmodium falciparum [1] is 934 nM; with Plasmodium falciparum [2], 885 nM. This compound registered a CC50 in series [3] of 59000 nM.
The corresponding values for `CC(C)c1ccc(NC(=O)C(Cc2cccs2)c2nnn[nH]2)cc1` (centres undefined) are 11300 nM, 1570 nM and more than 100000 nM.
For the compound `COc1cc(C=C(C#N)c2nc3ccccc3[nH]2)ccc1OCc1ccc(Cl)cc1`, the 50% effective concentration (EC50) in the series with Plasmodium falciparum [1] was found to be 763 nM; in the series with Plasmodium falciparum [2], 1570 nM. In addition, the CC50 in series [3] is more than 100000 nM.
Consider `Cc1ccc2c(C)nc(NC(=N)N)nc2c1`, for which the results for the EC50 in the series with Plasmodium falciparum [1] and in the series with Plasmodium falciparum [2] were 406 nM and 756 nM, respectively. In series [3], this compound had a CC50 of 48200 nM.
Take `CC(=O)N(C1=C(N2CCOCC2)C(=O)c2ccccc2C1=O)c1ccc(Cl)c(Cl)c1`: the EC50 came out at 220 nM in the series on Plasmodium falciparum [1] and 191 nM with Plasmodium falciparum [2]. Besides, the CC50 in series [3] was found to be 12200 nM.
`Cc1ccn2c(NC(C)(C)CC(C)(C)C)c(-c3ccccc3OC(=O)c3ccc4ccccc4c3)nc2c1`: the EC50 in the series with Plasmodium falciparum [1] came to 729 nM; in the series on Plasmodium falciparum [2], 152 nM. In series [3], the cytotoxic concentration (CC50) was more than 10000 nM.
For the compound `CCOC(=O)c1c(C)n(-c2ccccc2)c2ccc(OC(=O)c3ccccc3NC(=O)CC)cc12`, the EC50 in the series on Plasmodium falciparum [1] came out at 1060 nM; in the series with Plasmodium falciparum [2], 1530 nM. The compound further yielded a CC50 in series [3] of more than 100000 nM.
The corresponding values for `Cn1nc(C(F)(F)F)c(-c2ccc(F)cc2)c1NC(=O)Nc1ccc(F)cc1F` are 291 nM, 448 nM and 29200 nM.
The corresponding values for `CC1=NOC(=O)C1=Cc1cccs1` are more than 8250 nM, 776 nM and 49700 nM.
For `CCCN(CCC)CCNC(=O)c1cc2c(-c3ccc(Cl)cc3)nn(C)c2s1`, in that order: 253 nM, 703 nM and 45800 nM.
Regarding `CNC1=C(N(C(C)=O)c2ccc(Br)cc2)C(=O)c2ccccc2C1=O`, the EC50 in the series on Plasmodium falciparum [1] was determined as 162 nM; in the series on Plasmodium falciparum [2], 156 nM. Besides, the CC50 in series [3] is more than 10000 nM.
For `CCCCCCc1ccc(C(=O)NCCCCNc2ccnc3cc(Cl)ccc23)cc1`, in that order: 241 nM, 169 nM and more than 10800 nM.
Turning to `CN(C)c1ccc(C=C2C(=O)NC(=O)N(Cc3ccccc3Cl)C2=O)cc1`, the EC50 in the series on Plasmodium falciparum [1] is more than 12500 nM; with Plasmodium falciparum [2], 1550 nM. In series [3], this compound registered a CC50 of more than 100000 nM.
On to `COc1ccc(C2=Nc3cc(C(=O)NCCN4CCOCC4)ccc3CN2C(C)C)cc1`, for which the EC50 with Plasmodium falciparum [1] came out at 5270 nM; in the series with Plasmodium falciparum [2], 1530 nM. Besides, in series [3], the CC50 was more than 100000 nM.
Take `Cc1cc(C)cc(NC2=C(c3ccccc3)C(=O)c3ccccc32)c1`: the half-maximal effective concentration (EC50) in the series on Plasmodium falciparum [1] was 1830 nM; in the series with Plasmodium falciparum [2], 1530 nM. In series [3], this compound had a CC50 of more than 100000 nM.
For the compound `CC(OC(=O)c1ccccc1N1C(=O)C2C3C=CC(C4CC34)C2C1=O)C(=O)c1ccccc1` (centres undefined), the EC50 came to 961 nM in the series on Plasmodium falciparum [1] and 1570 nM in the series with Plasmodium falciparum [2]. Also, the CC50 in series [3] was more than 100000 nM.
For `O=c1oc(-c2ccccc2F)nc2sc3c(c12)CCCC3`, the figures for the EC50 with Plasmodium falciparum [1] and in the series on Plasmodium falciparum [2] were more than 12500 nM and 1570 nM, respectively. Besides, the CC50 in series [3] is more than 100000 nM.
With `CC(=O)C1C(=O)c2c(cccc2[N+](=O)[O-])C1=Nc1ccccc1C` (centres undefined), the EC50 came out at 643 nM with Plasmodium falciparum [1] and 777 nM with Plasmodium falciparum [2]. Besides, the CC50 in series [3] came out at 51700 nM.
As for `c1ccc(C2=Nc3ccccc3C(c3ccccc3)(c3ccccc3)N2)cc1`, the EC50 stood at 754 nM in the series on Plasmodium falciparum [1] and 590 nM in the series with Plasmodium falciparum [2]. Also, the CC50 in series [3] stood at 39400 nM.
In the case of `CC1(C)C2CCC1(C)C(OCC[N+]1(Cc3ccccc3)CCCC1)C2` (centres undefined), the EC50 stood at 161 nM with Plasmodium falciparum [1] and 195 nM in the series with Plasmodium falciparum [2]. The compound also returned a CC50 in series [3] of 12700 nM.
Consider `COc1cc(CNc2ccc(N3CCCCC3)cc2)cc(Cl)c1OCc1ccc(F)cc1`, for which the EC50 was determined as 3040 nM in the series on Plasmodium falciparum [1] and 1540 nM in the series on Plasmodium falciparum [2]. The compound also displayed a CC50 in series [3] of more than 100000 nM.
For `Cc1ccc(NC(=O)c2sc3nc4c(c(-c5cccs5)c3c2N)CCCCC4)cc1`, in that order: 5570 nM, 1560 nM and more than 100000 nM.
Take `COC(=O)c1sc2nc(CN3CCCC(C)C3)ccc2c1NC(=O)c1ccc(C)s1` (centres undefined): the EC50 was 1810 nM in the series with Plasmodium falciparum [1] and 1560 nM in the series on Plasmodium falciparum [2]. In series [3], this compound registered a CC50 of more than 100000 nM.
